Read-outs that look alike come from different tables or passages of the source.
Target: human PDE4D catalytic domain (Homo sapiens (Human), UniProt Q08499)
Experiment: PDE4 Assay (TR-FRET, FAM-cAMP cleavage)
Type: biochemical
Conditions: read-out: PDE4 IC50 range
Summary of the method: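 PDE4D catalytic domain (S380-L740) incubated briefly with unlabelled cAMP plus FAM-cAMP and titrated compound. Reaction stopped with binding buffer holding metal-ion nanoparticles that bind AMP phospho groups and Tb donor, and AMP formation read by TR-FRET. IC50 versus controls, reported as ranges (nM).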

[1] = human PDE4D catalytic domain (UniProt Q08499 [S380-L740]), 50% inhibition of substrate cleavage

Chain of human PDE4D catalytic domain (Q08499 380-740): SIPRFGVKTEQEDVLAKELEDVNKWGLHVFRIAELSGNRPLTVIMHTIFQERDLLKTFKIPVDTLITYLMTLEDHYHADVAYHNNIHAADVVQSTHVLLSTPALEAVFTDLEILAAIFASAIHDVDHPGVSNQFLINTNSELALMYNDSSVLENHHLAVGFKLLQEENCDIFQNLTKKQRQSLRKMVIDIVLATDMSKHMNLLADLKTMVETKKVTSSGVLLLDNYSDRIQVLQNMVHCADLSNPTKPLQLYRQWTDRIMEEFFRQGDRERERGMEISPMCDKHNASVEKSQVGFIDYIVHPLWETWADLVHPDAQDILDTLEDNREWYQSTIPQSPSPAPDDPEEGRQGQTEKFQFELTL

Q: With `CCn1nc(CC(C)(C)COC(=O)c2cccc(C(=O)N3CCOCC3)c2)c2c1C(=O)NCC1(CCOCC1)C2` [Example 232, [3-(1-ethyl-8-oxo-spiro[6,7-dihydro-4H-pyrazolo[3,4-c]azepine-5,4′-tetrahydro-pyran]-3-yl)-2,2-dimethyl-propyl] 3-(morpholine-4-carbonyl)benzoate] as the molecule, how does the IC50 [1] read?
A: < 0.1 µM

Q: With `CCn1nc(CC(C)(C)COC(=O)c2ccc(C(=O)N3CCCC3)cc2)c2c1C(=O)NCC1(CCOCC1)C2` [Example 221, [3-(1-ethyl-8-oxo-spiro[6,7-dihydro-4H-pyrazolo[3,4-c]azepine-5,4′-tetrahydro-pyran]-3-yl)-2,2-dimethyl-propyl] 4-(pyrrolidine-1-carbonyl)benzoate] as the molecule, how does the IC50 [1] read?
A: < 0.1 µM

Q: How did the IC50 [1] turn out when `CCn1nc(C[C@@H](C)COC(=O)c2ccc(S(=O)(=O)N3CCN(C(C)=O)CC3)cc2)c2c1C(=O)NCC1(CCOCC1)C2` [Example 167, [(2R)-3-(1-ethyl-8-oxo-spiro[6,7-dihydro-4H-pyrazolo[3,4-c]azepine-5,4′-tetrahydropyran]-3-yl)-2-methyl-propyl] 4-(4-acetylpiperazin-1-yl)sulfonylbenzoate] was run?
A: < 0.1 µM

Q: With `CCn1nc(CCCOC(=O)c2ccc(S(=O)(=O)N3CCOCC3)cc2)c2c1C(=O)NCC1(CCOCC1)C2` [Example 100, 3-(1-ethyl-8-oxo-spiro[6,7-dihydro-4H-pyrazolo[3,4-c]azepine-5,4′-tetrahydropyran]-3-yl)propyl 4-morpholinosulfonylbenzoate] as the molecule, how does the IC50 [1] read?
A: < 0.1 µM

Q: For `CCn1nc(C[C@@H](C)COC(=O)[C@H]2CC[C@@H](O)CC2)c2c1C(=O)NCC1(CCOCC1)C2` [Example 147, [(2R)-3-(1-ethyl-8-oxo-spiro[6,7-dihydro-4H-pyrazolo[3,4-c]azepine-5,4′-tetrahydropyran]-3-yl)-2-methyl-propyl] 4-hydroxy-cyclohexanecarboxylate], which IC50 [1] is on record?
A: < 0.1 µM

Q: For `CCn1nc(CCCOC(=O)c2ccc(C)cc2)c2c1C(=O)NCC1(CCOCC1)C2` [Example 8, 3-(1-ethyl-8-oxo-spiro[6,7-dihydro-4H-pyrazolo[3,4-c]azepine-5,4′-tetrahydropyran]-3-yl)propyl 4-methylbenzoate], which IC50 [1] is on record?
A: < 0.1 µM

Q: With `CCn1nc(CC(C)(C)COC(=O)c2ccccc2C)c2c1C(=O)NCC1(CCOCC1)C2` [Example 189, [3-(1-ethyl-8-oxo-spiro[6,7-dihydro-4H-pyrazolo[3,4-c]azepine-5,4′-tetrahydropyran]-3-yl)-2,2-dimethyl-propyl] 2-methylbenzoate] as the molecule, how does the IC50 [1] read?
A: < 0.1 µM

Q: With `CCc1ccc(C(=O)OCCCc2nn(CC)c3c2CC2(CCOCC2)CNC3=O)cc1` [Example 15, 3-(1-ethyl-8-oxo-spiro[6,7-dihydro-4H-pyrazolo[3,4-c]azepine-5,4′-tetrahydropyran]-3-yl)propyl 4-ethylbenzoate] as the molecule, how does the IC50 [1] read?
A: < 0.1 µM

Q: With `CCn1nc(CCCOC(=O)c2cc(F)cc(C(F)(F)F)c2)c2c1C(=O)NCC1(CCOCC1)C2` [Example 72, 3-(1-ethyl-8-oxo-spiro[6,7-dihydro-4H-pyrazolo[3,4-c]azepine-5,4′-tetrahydro-pyran]-3-yl)propyl 3-fluoro-5-(trifluoromethyl)benzoate] as the molecule, how does the IC50 [1] read?
A: < 0.1 µM

Q: With `CCn1nc(CC(C)(C)COC(=O)c2csc(C)n2)c2c1C(=O)NCC1(CCOCC1)C2` [Example 310, [3-(1-ethyl-8-oxo-spiro[6,7-dihydro-4H-pyrazolo[3,4-c]azepine-5,4′-tetrahydro-pyran]-3-yl)-2,2-dimethyl-propyl] 2-methylthiazole-4-carboxylate] as the molecule, how does the IC50 (Table 17, Examples 297-316) read?
A: < 0.1 µM

Q: `CCn1nc(CCCOC(=O)c2cc(F)ccc2C(F)(F)F)c2c1C(=O)NCC1(CCOCC1)C2` [Example 74, 3-(1-ethyl-8-oxo-spiro[6,7-dihydro-4H-pyrazolo[3,4-c]azepine-5,4′-tetrahydro-pyran]-3-yl)propyl 5-fluoro-2-(trifluoromethyl)benzoate] was tested. Which IC50 [1] did it give?
A: < 0.1 µM

Q: For `CCn1nc(C[C@@H](C)COC(=O)c2cnn(C)c2)c2c1C(=O)NCC1(CCOCC1)C2` [Example 279, [(2R)-3-(1-ethyl-8-oxo-spiro[6,7-dihydro-4H-pyrazolo[3,4-c]azepine-5,4′-tetrahydropyran]-3-yl)-2-methyl-propyl] 1-methylpyrazole-4-carboxylate], which IC50 (Table 16, Examples 277-296) is on record?
A: < 0.1 µM

Q: With `CCn1nc(CCCOC(=O)c2cc(C)nc(C)c2)c2c1C(=O)NCC1(CCOCC1)C2` [Example 258, 3-(1-ethyl-8-oxo-spiro[6,7-dihydro-4H-pyrazolo[3,4-c]azepine-5,4′-tetrahydro-pyran]-3-yl)propyl 2,6-dimethylpyridine-4-carboxylate] as the molecule, how does the IC50 [1] read?
A: < 0.1 µM

Q: For `CCn1nc(CCCOC(=O)c2coc(C)n2)c2c1C(=O)NCC1(CCOCC1)C2` [Example 240, 3-(1-ethyl-8-oxo-spiro[6,7-dihydro-4H-pyrazolo[3,4-c]azepine-5,4′-tetrahydropyran]-3-yl)propyl 2-methyloxazole-4-carboxylate], which IC50 [1] is on record?
A: < 0.1 µM

Q: Which IC50 [1] does the source give for `CCn1nc(CCCOC(=O)C2CCN(C(=O)OC)CC2)c2c1C(=O)NCC1(CCOCC1)C2` [Example 263, [3-(1-ethyl-8-oxo-spiro[6,7-dihydro-4H-pyrazolo[3,4-c]azepine-5,4′-tetrahydro-pyran]-3-yl)propyl] 1-methoxy-carbonylpiperidine-4-carboxylate] here?
A: < 0.1 µM

Q: With `CCn1nc(CCCOC(=O)c2cncs2)c2c1C(=O)NCC1(CCOCC1)C2` [Example 245, 3-(1-ethyl-8-oxo-spiro[6,7-dihydro-4H-pyrazolo[3,4-c]azepine-5,4′-tetrahydropyran]-3-yl)propyl thiazole-5-carboxylate] as the molecule, how does the IC50 [1] read?
A: < 0.1 µM

Q: With `CCn1nc(CCCCOC(=O)c2ccc(S(C)(=O)=O)cc2)c2c1C(=O)NCC1(CCOCC1)C2` [Example 130, 4-(1-ethyl-8-oxo-spiro[6,7-dihydro-4H-pyrazolo[3,4-c]azepine-5,4′-tetrahydropyran]-3-yl)butyl 4-methylsulfonyl-benzoate] as the molecule, how does the IC50 [1] read?
A: < 0.1 µM

Q: `CCn1nc(CCCCOC(=O)C2CCOCC2)c2c1C(=O)NCC1(CCOCC1)C2` [Example 270, 4-(1-ethyl-8-oxo-spiro[6,7-dihydro-4H-pyrazolo[3,4-c]azepine-5,4′-tetrahydropyran]-3-yl)butyl tetrahydropyran-4-carboxylate] was tested. Which IC50 [1] did it give?
A: < 0.1 µM

Q: How did the IC50 [1] turn out when `CCn1nc(CCCOC(=O)C2CCSCC2)c2c1C(=O)NCC1(CCOCC1)C2` [Example 257, 3-(1-ethyl-8-oxo-spiro[6,7-dihydro-4H-pyrazolo[3,4-c]azepine-5,4′-tetrahydro-pyran]-3-yl)propyl tetrahydro-thiopyran-4-carboxylate] was run?
A: < 0.1 µM

Q: With `CCn1nc(CCCOC(=O)C2CCN(C(C)=O)CC2)c2c1C(=O)NCC1(CCOCC1)C2` [Example 261, 3-(1-ethyl-8-oxo-spiro[6,7-dihydro-4H-pyrazolo[3,4-c]azepine-5,4′-tetrahydropyran]-3-yl)propyl 1-acetylpiperidine-4-carboxylate] as the molecule, how does the IC50 [1] read?
A: < 0.1 µM

Q: `CCn1nc(CCCCOC(=O)c2ccc(C(=O)N(C)C)cc2)c2c1C(=O)NCC1(CCOCC1)C2` [Example 129, 4-(1-ethyl-8-oxo-spiro[6,7-dihydro-4H-pyrazolo[3,4-c]azepine-5,4′-tetrahydropyran]-3-yl)butyl 4-(dimethyl-carbamoyl)benzoate] was tested. Which IC50 [1] did it give?
A: < 0.1 µM

Q: `CCn1nc(CCCOC(=O)c2cccc(C(F)(F)F)c2Cl)c2c1C(=O)NCC1(CCOCC1)C2` [Example 85, 3-(1-ethyl-8-oxo-spiro[6,7-dihydro-4H-pyrazolo[3,4-c]azepine-5,4′-tetrahydropyran]-3-yl)propyl 2-chloro-3-(trifluoromethyl)benzoate] was tested. Which IC50 [1] did it give?
A: < 0.1 µM

Q: How did the IC50 [1] turn out when `CCn1nc(CC(C)(C)COC(=O)c2cccc(C(=O)N3CCCC3)c2)c2c1C(=O)NCC1(CCOCC1)C2` [Example 230, [3-(1-ethyl-8-oxo-spiro[6,7-dihydro-4H-pyrazolo[3,4-c]azepine-5,4′-tetrahydro-pyran]-3-yl)-2,2-dimethyl-propyl] 3-(pyrrolidine-1-carbonyl)benzoate] was run?
A: < 0.1 µM

Q: For `CCn1nc(CC(C)(C)COC(=O)c2cccc(S(=O)(=O)N3CCN(C(C)=O)CC3)c2)c2c1C(=O)NCC1(CCOCC1)C2` [Example 215, [3-(1-ethyl-8-oxo-spiro[6,7-dihydro-4H-pyrazolo[3,4-c]azepine-5,4′-tetrahydropyran]-3-yl)-2,2-dimethyl-propyl] 3-(4-acetylpiperazin-1-yl)sulfonylbenzoate], which IC50 [1] is on record?
A: < 0.1 µM

Q: For `CCn1nc(CC(C)(C)COC(=O)c2ccc(S(=O)(=O)N3CCCC3)cc2)c2c1C(=O)NCC1(CCOCC1)C2` [Example 211, [3-(1-ethyl-8-oxo-spiro[6,7-dihydro-4H-pyrazolo[3,4-c]azepine-5,4′-tetrahydropyran]-3-yl)-2,2-dimethyl-propyl] 4-pyrrolidin-1-ylsulfonylbenzoate], which IC50 [1] is on record?
A: < 0.1 µM

Q: Which IC50 [1] does the source give for `CCn1nc(C[C@@H](C)COC(=O)c2cccc(C(=O)NC)c2)c2c1C(=O)NCC1(CCOCC1)C2` [Example 179, [(2R)-3-(1-ethyl-8-oxo-spiro[6,7-dihydro-4H-pyrazolo[3,4-c]azepine-5,4′-tetrahydropyran]-3-yl)-2-methyl-propyl] 3-(methylcarbamoyl)benzoate] here?
A: < 0.1 µM

Q: `CCn1nc(CC(C)(C)COC(=O)c2ccc(S(=O)(=O)N3CCOCC3)cc2)c2c1C(=O)NCC1(CCOCC1)C2` [Example 213, [3-(1-ethyl-8-oxo-spiro[6,7-dihydro-4H-pyrazolo[3,4-c]azepine-5,4′-tetrahydropyran]-3-yl)-2,2-dimethyl-propyl] 4-morpholinosulfonylbenzoate] was tested. Which IC50 [1] did it give?
A: < 0.1 µM

Q: With `CCn1nc(C[C@@H](C)COC(=O)c2ccc(C(=O)N3CCOCC3)cc2)c2c1C(=O)NCC1(CCOCC1)C2` [Example 174, [(2R)-3-(1-ethyl-8-oxo-spiro[6,7-dihydro-4H-pyrazolo[3,4-c]azepine-5,4′-tetrahydropyran]-3-yl)-2-methyl-propyl] 4-(morpholine-4-carbonyl)benzoate] as the molecule, how does the IC50 [1] read?
A: < 0.1 µM

Q: Which IC50 [1] does the source give for `CCn1nc(CCCCOC(=O)c2ccc(S(=O)(=O)NC)cc2)c2c1C(=O)NCC1(CCOCC1)C2` [Example 131, 4-(1-ethyl-8-oxo-spiro[6,7-dihydro-4H-pyrazolo[3,4-c]azepine-5,4′-tetrahydropyran]-3-yl)butyl 4-(methyl-sulfamoyl)benzoate] here?
A: < 0.1 µM

From US10793580B2, “Substituted pyrazoloazepin-8-ones and their use as phosphodiesterase inhibitors” (LEO Pharma A/S, priority 2016, dated 2020)
